Measured values published in ChEMBL document CHEMBL5149978, “Structural insights of oxindole based kinase inhibitors as anticancer agents: Recent advances” (Eur J Med Chem, 2021).

Key:
[1] = biological target: Platelet-derived growth factor receptor beta (Homo sapiens, UniProt P09619); assay: Inhibition of PDGFR beta (unknown origin)
HeLa [2] = assay: Anti-proliferative against human HeLa cells incubated for 48 hrs by MTT assay; type: functional, cell-based
A549 [3] = assay: Anti-proliferative against human A549 cells incubated for 48 hrs by MTT assay; type: functional, cell-based; settings: A549, 48 h
[4] = biological target: Serine/threonine-protein kinase pim-1 (Homo sapiens, UniProt P11309); assay: Inhibition of PIM1 (unknown origin)
Sequence of Serine/threonine-protein kinase pim-1 (P11309 whole entry): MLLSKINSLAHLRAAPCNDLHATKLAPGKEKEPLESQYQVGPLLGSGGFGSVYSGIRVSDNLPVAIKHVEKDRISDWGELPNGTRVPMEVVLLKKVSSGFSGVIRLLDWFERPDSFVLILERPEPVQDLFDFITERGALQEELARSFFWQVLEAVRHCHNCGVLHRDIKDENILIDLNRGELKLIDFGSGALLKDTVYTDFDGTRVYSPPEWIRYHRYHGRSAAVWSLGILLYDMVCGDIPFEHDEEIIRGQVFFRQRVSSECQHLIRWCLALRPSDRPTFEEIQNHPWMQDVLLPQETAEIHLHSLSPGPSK

SW-620 = assay: Anti-proliferative against human SW620 cells incubated for 48 hrs by MTT assay; type: functional, cell-based; settings: SW-620, 48 h
[5] = Inhibition of tyrosine kinase receptor (unknown origin) by ELISA; design: species or system Homo sapiens
HeLa [6] = assay: Cytotoxicity against human HeLa cells measured after 48 hrs by MTS assay; type: functional, cell-based
MDA-MB-231 [7] = assay: Anti-proliferative activity against human MDA-MB-231 cells measured after 48 hrs by MTT assay; type: functional, cell-based; settings: MDA-MB-231, 48 h
HCT-116 [8] = assay: Antiproliferative against human HCT-116 cells assessed as reduction in cell proliferation incubated for 72 hrs by MTT assay; type: functional, cell-based; settings: HCT-116, 72 h
[9] = biological target: Cyclin-dependent kinase 2 (Homo sapiens, UniProt P24941); assay: Inhibition of CDK2 (unknown origin)
[10] = biological target: Apoptosis regulator Bcl-2 (Homo sapiens, UniProt P10415); assay: Inhibition of BCL2 (unknown origin)
Sequence of Apoptosis regulator Bcl-2 (P10415 whole entry): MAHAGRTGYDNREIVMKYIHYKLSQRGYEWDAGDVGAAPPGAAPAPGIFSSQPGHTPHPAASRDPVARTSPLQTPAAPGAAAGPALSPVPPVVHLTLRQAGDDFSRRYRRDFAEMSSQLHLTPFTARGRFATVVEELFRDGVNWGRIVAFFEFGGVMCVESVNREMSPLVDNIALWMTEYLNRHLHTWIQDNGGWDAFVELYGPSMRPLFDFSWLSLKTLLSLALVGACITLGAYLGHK

HCT-116 [11] = assay: Anti-proliferative against human HCT-116 cells by SRB colorimetric assay; type: functional, cell-based
MDA-MB-231 [12] = assay: Anti-proliferative against human MDA-MB-231 cells by SRB colorimetric assay; type: functional, cell-based
A549 [13] = assay: Anti-proliferative against human A549 cells by SRB colorimetric assay; type: functional, cell-based
MCF7 [14] = assay: Anti-proliferative against human MCF-7 cells by MTT assay; type: functional, cell-based
T47D = assay: Anti-proliferative against human T-47D cells by MTT assay; type: functional, cell-based
MCF7 [15] = assay: Anti-proliferative against human MCF-7 cells by SRB colorimetric assay; type: functional, cell-based

Sequence of Platelet-derived growth factor receptor beta (P09619 whole entry): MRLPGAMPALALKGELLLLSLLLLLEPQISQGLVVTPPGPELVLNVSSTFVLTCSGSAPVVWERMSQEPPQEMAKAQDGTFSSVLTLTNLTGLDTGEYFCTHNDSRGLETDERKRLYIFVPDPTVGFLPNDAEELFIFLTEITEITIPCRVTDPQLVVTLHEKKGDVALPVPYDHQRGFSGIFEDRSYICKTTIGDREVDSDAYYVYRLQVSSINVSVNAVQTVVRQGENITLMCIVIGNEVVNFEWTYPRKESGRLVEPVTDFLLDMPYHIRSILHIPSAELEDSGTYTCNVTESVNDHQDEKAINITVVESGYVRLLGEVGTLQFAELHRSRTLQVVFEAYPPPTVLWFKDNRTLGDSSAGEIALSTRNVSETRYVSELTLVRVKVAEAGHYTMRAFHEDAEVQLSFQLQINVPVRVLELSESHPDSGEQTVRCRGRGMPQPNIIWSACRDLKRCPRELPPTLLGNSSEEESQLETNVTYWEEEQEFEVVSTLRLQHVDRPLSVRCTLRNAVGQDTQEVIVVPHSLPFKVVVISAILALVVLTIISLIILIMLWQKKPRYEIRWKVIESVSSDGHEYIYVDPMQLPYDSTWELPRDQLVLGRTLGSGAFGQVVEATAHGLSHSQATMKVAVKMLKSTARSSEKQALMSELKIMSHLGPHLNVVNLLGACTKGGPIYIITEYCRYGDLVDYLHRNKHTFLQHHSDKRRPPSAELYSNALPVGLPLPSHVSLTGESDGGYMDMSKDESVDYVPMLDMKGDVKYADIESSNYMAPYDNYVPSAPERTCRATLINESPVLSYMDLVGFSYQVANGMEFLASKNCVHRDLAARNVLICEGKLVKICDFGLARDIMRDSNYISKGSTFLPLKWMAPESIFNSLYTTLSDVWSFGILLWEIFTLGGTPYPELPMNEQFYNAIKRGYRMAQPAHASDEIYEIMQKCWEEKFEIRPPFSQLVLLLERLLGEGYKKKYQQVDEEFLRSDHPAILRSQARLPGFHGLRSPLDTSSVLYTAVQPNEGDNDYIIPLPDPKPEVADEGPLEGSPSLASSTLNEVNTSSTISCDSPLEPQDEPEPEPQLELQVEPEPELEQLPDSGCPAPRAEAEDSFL

COc1ccc2c(c1)/C(=N\Nc1nnc3n1N=C(c1ccccc1)CS3)C(=O)N2
IC50 [1]: 371 nM

O=C(/C=C1\C(=O)Nc2ccccc21)/C=C/c1ccc(F)cc1
IC50 (HeLa [2]): 1530 nM
IC50 (A549 [3]): 2020 nM
IC50 [4]: 5000 nM
IC50 (SW-620): 130 nM

COc1cccc(C[S+]([O-])/C=C2\C(=O)Nc3ccccc32)c1 (stereo unspecified)
IC50 [5]: 2230 nM
IC50 (HeLa [6]): 22700 nM

N#CC1=C(c2ccccc2)Nc2c(c(-c3cccs3)nn2-c2ccccc2)C12C(=O)Nc1ccc(Cl)cc12 (stereo unspecified)
IC50 (MDA-MB-231 [7]): 6400 nM

CCN(CC)CCN1Cc2[nH]c(/C=C3\C(=O)Nc4ccc(I)cc43)c(C)c2C1=O
IC50 (HCT-116 [8]): 420 nM

O=C1Nc2ccccc2/C1=C/[S+]([O-])Cc1ccc(Br)cc1 (stereo unspecified)
IC50 [5]: 1340 nM
IC50 (HeLa [6]): 24000 nM

CCCn1cc(/C=N/N=C2\C(=O)Nc3ccc(C)cc32)c2ccccc21
IC50 [9]: 850 nM
IC50 [10]: 460 nM
IC50 (HCT-116 [11]): 2600 nM
IC50 (MDA-MB-231 [12]): 4700 nM
IC50 (A549 [13]): 7300 nM

CCN(CC)CCN1Cc2[nH]c(/C=C3\C(=O)Nc4ccc(Br)cc43)c(C)c2C1=O
IC50 (HCT-116 [8]): 1050 nM

O=C(N/N=C1\C(=O)N(Cc2ccc(F)cc2)c2ccccc21)c1cc2ccccc2[nH]1
IC50 (MDA-MB-231 [12]): 1030 nM

COc1ccc2c(c1)/C(=N/NC(=O)c1cc3cc(Br)ccc3o1)C(=O)N2
IC50 (MCF7 [14]): 2270 nM
IC50 (T47D): 7800 nM

O=C1Nc2ccc(Br)cc2/C1=N/NC(=O)c1cc2cc(Br)ccc2o1
IC50 (MCF7 [14]): 3410 nM
IC50 (T47D): 3820 nM

Cc1ccc2c(c1)/C(=N/NC(=O)c1cc3cc(Br)ccc3o1)C(=O)N2
IC50 (MCF7 [14]): 3450 nM
IC50 (T47D): 4530 nM

Cc1ccc2c(c1)/C(=N/NC(=O)c1cc3ccccc3[nH]1)C(=O)N2
IC50 (MCF7 [15]): 390 nM

N#CC1=C(c2ccccc2)Nc2c(c(-c3cccs3)nn2-c2ccccc2)C12C(=O)Nc1ccc(Br)cc12 (stereo unspecified)
IC50 (MDA-MB-231 [7]): 6700 nM
